Measured values reported in PMC12833874 (Journal of Medicinal Chemistry, 2025).
Like-named read-outs stand apart in the source and are kept apart here.

Legend:
NOPr [1] = target: T1, NOPr (Homo sapiens, UniProt P41146); assay: BRET G-protein activation (GPA) assay, Gαi2, agonist and antagonist mode, Flp-In-NOPr-CHO cells; type: cell-based
SNAP-NOPr = target: T2, SNAP-NOPr (Homo sapiens, UniProt P41146); assay: Confocal imaging of fluorescent ligand binding, live FlpIn CHO cells stably expressing SNAP-NOPr; type: cell-based; conditions: 1 μM, 30 min at 37 °C, live cells
T2 construct: expressed in transfected cells
Protocol: To first assess whether the library of fluorescent ligands (13a-h and 14h) can specifically label the NOPr, single time point confocal images of live FlpIn CHO cells stably expressing SNAP-NOPr were captured. Cells were incubated with fluorescent ligands 13a-h and 14h (1 μM) to assess the fluorescent ligand binding.
3 Single time point confocal images of live FlpIn CHO cells stably expressing SNAP-NOPr. Cells were labeled with SNAP-AF488 (cyan) to visualize SNAP-NOPr expression (a–d) and incubated for 30 min at 37 °C with fluorescent ligands 13e–h (1 μM) (magenta) to visualize fluorescent ligand binding (e-h).
For all experiments, live cell single time point confocal images were captured using a Zeiss Cell Discoverer 7 LSM 900 high-content automated confocal microscope. Two images per well were captured using a 10× objective and the Cy5 channel (650 λex, 673 λem), the AF488 (495λex, 520 λem) channel, and the CFP (433λex, 475 λem) channel. All cells were imaged in an imaging buffer containing (2 mM sodium pyruvate, 145 mM NaCl, 10 mM D-glucose, 5 mM KCl, 1 mM MgSO4·7H2O, 10 mM HEPES, 1.3 mM CaCl2 dihydrate, and 1.5 mM NaHCO3).
Stably expressing SNAP-NOPr FlpIn-CHO cells suspended in DMEM (D6421) (100 μL) were seeded (10,000 cells/well) into 96-well poly-D-lysine (PDL)-coated Greiner black polyester plates. Cells were incubated for 48 h at 37 °C and 5% CO2 prior to imaging.
Before measurement, the media were removed, and cells were washed with 90 μL of imaging buffer. Cells were then incubated with SNAP-AF488 (New England Biolabs) (0.5 μg·mL^–1) in imaging buffer for 30 min at 37 °C. After incubation, the SNAP-AF488 solution was aspirated and cells were rinsed twice with imaging buffer (90 μL). […] Cells were incubated for 30 min at 37 °C and 5% CO2 before the images were captured.

NOPr [2] = target: T1, NOPr; assay: TR-FRET equilibrium saturation binding, Lumi4Tb-SNAP-NOPr CHO membranes
NOPr [3] = target: T1, NOPr; assay: TR-FRET kinetic binding, Lumi4-Tb-SNAP-NOPr-CHO membranes; conditions: for Kd: kinetically derived, 15 min, n = 3
NOPr [4] = target: T1, NOPr; assay: TR-FRET competition binding with tracers 13g and 13h, Lumi4-Tb SNAP-NOPr membranes; conditions: 140 mM Na+, 100 μM Gpp(NH)p, 2 h 37 °C
NOPr [5] = conditions: Table 4; literature values, reference number not given; read-out: literature K i; cited from earlier work
MOPr = conditions: literature value, reference number not given; read-out: MOPr K i; cited from earlier work
KOPr = conditions: literature value, reference number not given; read-out: KOPr K i; cited from earlier work
DOPr = conditions: literature value, reference number not given; read-out: DOPr K i; cited from earlier work
NOPr [6] = target: T1, NOPr; assay: TR-FRET competition binding with tracer 13h in presence and absence of Na+ and Gpp(NH)p
CHOhNOPr = conditions: ref Spagnolo et al.,1; cited from earlier work
CHOhMOPr = target: CHOhMOPr; design: method as in Spagnolo et al.,1; conditions: ref Spagnolo et al.,1; cited from earlier work
CHOhDOPr = target: CHOhDOPr; design: method as in Spagnolo et al.,1; conditions: ref Spagnolo et al.,1; cited from earlier work
CHOhKOPr = target: CHOhKOPr; design: method as in Spagnolo et al.,1; conditions: ref Spagnolo et al.,1; cited from earlier work
NOPr [7] = tested on: NOPr; design: method as in Spagnolo et al.,1; conditions: ref Spagnolo et al.,1, cited from earlier work
[8] = IC50, antagonist mode, inhibition of EC80 concentration of N/OFQ, n = 4 in duplicate
[9] = pIC50 ± SEM, antagonist mode, inhibition of EC80 concentration of N/OFQ, n = 4 in duplicate

T1 sequence (P41146 whole entry): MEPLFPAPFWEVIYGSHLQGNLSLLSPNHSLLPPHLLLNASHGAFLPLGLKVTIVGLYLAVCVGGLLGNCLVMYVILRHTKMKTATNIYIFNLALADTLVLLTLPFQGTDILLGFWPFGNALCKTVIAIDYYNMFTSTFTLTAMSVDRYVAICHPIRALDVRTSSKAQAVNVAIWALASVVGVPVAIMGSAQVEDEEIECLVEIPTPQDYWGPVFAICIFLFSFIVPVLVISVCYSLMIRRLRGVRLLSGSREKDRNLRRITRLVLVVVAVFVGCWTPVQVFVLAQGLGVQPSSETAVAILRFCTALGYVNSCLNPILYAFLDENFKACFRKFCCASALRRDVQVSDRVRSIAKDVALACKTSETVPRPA
T2 sequence (P41146 whole entry): as above

## CN1/C(=C/C=C/C=C/C2=[N+](CCCCCC(=O)NCCOc3cccc(CN4CCC[C@@H]4C(=O)NCCCN4CCC5(CC4)OCc4ccccc45)c3)c3ccc(S(=O)(=O)[O-])cc3C2(C)C)C(C)(C)c2cc(S(=O)(=O)[O-])ccc21.[K+] [13g, Potassium 1-(6-((2-(3-(((R)-2-((3-(3H-Spiro[isobenzofuran-1,4′-piperidin]-1′-yl)propyl)carbamoyl)pyrrolidin-1-yl)methyl)phenoxy)ethyl)amino)-6-oxohexyl)-3,3-dimethyl-2-((1E,3E)-5-((E)-1,3,3-trimethyl-5-sulfonatoindolin-2-ylidene)penta-1,3-dien-1-yl)-3H-indol-1-ium-5-sulfonate]
NOPr [1]; 11g to 13g, 11h to 13h and 14h
  reduction in inhibitory potency from N-Boc congener to fluorescent ligand: ≥ 5 fold
NOPr [1]; [8]
  IC50: 110 nM
NOPr [1]; NOP IC50 (nM), supplementary csv, GPA assay antagonist mode
  IC50: 109 nM
NOPr [1]; NOP pIC50 ± SEM, supplementary csv, GPA assay antagonist mode
  IC50: 110 nM
NOPr [1]; [9]
  IC50: 100 nM
SNAP-NOPr
  fluorescent ligand binding (confocal images): more pronounced binding
NOPr [2]; 400 nM
  binding behaviour at the highest concentration tested: saturable binding with minimal nonspecific binding
NOPr [2]; 2 h, 37 °C, n = 3, read-out: saturation KD (converted)
  Kd: 19.1 nM
NOPr [2]; 2 h, 37 °C, n = 3, read-out: saturation pKD (converted)
  Kd: 19.1 nM
NOPr [2]; NOPr vs MOPr, DOPr, KOPr
  selectivity over the other opioid receptors: > 100 fold
NOPr [2]; Table 3, equilibrium saturation binding, read-out: KD NOPr (converted)
  Kd: 19.1 nM
NOPr [2]; Table 3, equilibrium saturation binding, read-out: pKD ± SEM NOPr (converted)
  Kd: 19.1 nM
NOPr [3]; 0–50 nM, over 15 min
  koff: 0.00167 s⁻¹
  kon: 51700 M⁻¹ s⁻¹
NOPr [3]; read-out: kinetic KD (converted)
  Kd: 35.7 nM
NOPr [3]; read-out: kinetic pKD (converted)
  Kd: 35.5 nM

## CC(C)C1CCC(N2CCC3(CC2)C(=O)N(CCNS(N)(=O)=O)Cc2ccccc23)CC1 (centres unmarked) [AT-121]
NOPr [4]; read-out: 13h K i ± SEM, tracer 13h (5 nM; 25 nM elsewhere in the source)
  Ki: 11 ± 10 nM
NOPr [4]; tracer 13g (20 nM; 5 nM elsewhere in the source), read-out: 13g K i ± SEM
  Ki: 17 ± 3 nM

## O=C(NCCCN1CCC2(CC1)OCc1ccccc12)[C@H]1CCCN1Cc1ccccc1 [C24, (2R)-1-(phenylmethyl)-N-(3-spiro[1H-2-benzofuran-3,4′-piperidine]-1′-ylpropyl)pyrrolidine-2-carboxamide]
NOPr [1]; [8]
  IC50: 2.7 nM
NOPr [1]; [9]
  IC50: 2.51 nM
NOPr [4]; 13g K i ± SEM (nM), tracer 13g (20 nM; 5 nM elsewhere in the source)
  Ki: 0.06 ± 0.02 nM
NOPr [4]; 13h K i ± SEM (nM), tracer 13h (5 nM; 25 nM elsewhere in the source)
  Ki: 0.09 ± 0.0008 nM
NOPr [5]
  Ki: 0.24 nM
MOPr
  Ki: > 2500 nM
KOPr
  Ki: > 2500 nM
DOPr
  Ki: > 2500 nM

## N/OFQ: endogenous 17-amino acid neuropeptide agonist nociceptin/orphanin FQ, full NOPr agonist
NOPr [5]
  Ki: 0.08 ± 0.03 nM

## Cc1cccc2c1CC[C@H](CN1CCC(c3c(Cl)cccc3Cl)CC1)C[C@@H]2O [SB-612111, (−)-cis-1-Methyl-7-[[4-(2,6-dichlorophenyl)piperidin-1-yl]methyl]-6,7,8,9-tetrahydro-5 H-benzocyclohepten-5-ol]
NOPr [6]
  change in apparent affinity (K i), Na+ and Gpp(NH)p vs NMDG condition: ~1.3 fold
CHOhNOPr
  Ki: 0.16 nM
  pKi ± SEM CHOhNOPr: 9.80 ± 0.08
CHOhMOPr
  Ki: < 1000 nM
  pKi CHOhMOPr: < 6.0
CHOhDOPr
  Ki: < 5000 nM
  pKi CHOhDOPr: < 5.3
CHOhKOPr
  Ki: < 1000 nM
  pKi CHOhKOPr: < 6.0
NOPr [7]
  pKB GTPγ[35S]: […]
NOPr [7]; read-out: KB GTPγ[35S]
  Kb: […]
